The values that follow come from the NIST ThermoML archive (doi:10.1007/s10765-010-0773-1).

Data set [1] can be described thus: refractive index (Na D-line) (dimensionless). Particulars: 298.15 K; 101.33 kPa; Liquid; Standard Abbe refractometry.
A short description of data set [2]: xn = mol fraction of the nth substance listed. The settings on record: 101 kPa, Liquid, x2 = 0; for mass density: Vibrating tube method; for speed of sound: Pulse-echo method.

Numbers after ± are expanded uncertainties.

Usually refractive index stands for a measure of how strongly the sample bends light. Take `BrCBr` [dibromomethane]: in data set [1], the refractive index is 1.3851 ± 0.0011.

As a reminder, the mass density is the mass of a sample divided by its volume. One may read the speed of sound as the propagation velocity of pressure waves in the medium. Regarding `CCCCCCC` [heptane] + BrCBr, the mass density is on record as 688.15 ± 0.25 kg/m3 in data set [2] (288.15 K); 683.94 ± 0.25 kg/m3 in data set [2] (293.15 K); 679.7 ± 0.25 kg/m3 in data set [2] (298.15 K); 675.44 ± 0.25 kg/m3 in data set [2] (303.15 K); 671.15 ± 0.25 kg/m3 in data set [2] (308.15 K); 666.83 ± 0.25 kg/m3 in data set [2] (313.15 K). The mass density in data set [2] (318.15 K) came out at 662.48 ± 0.25 kg/m3. The speed of sound is on record as 1152.5 ± 1.6 m/s in data set [2] (292.87 K); 1129.7 ± 1.6 m/s in data set [2] (298.14 K); 1108.2 ± 1.6 m/s in data set [2] (303.12 K); 1086.8 ± 1.6 m/s in data set [2] (308.1 K); 1064.7 ± 1.6 m/s in data set [2] (313.27 K).
